Assay results published in ChEMBL document CHEMBL1201862, “PubChem BioAssay data set” (2004).
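All cell lines were grown in 96-well plates and treated with compound for 48 hours. Here, GI50 denotes the concentration required for 50% inhibition of growth.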 Calls of active or inactive are those of the source. No stated cut-off is given here; in the data, active = GI50 up to about 1.1 µM and inactive = higher. Non-standard residues stand in square brackets, D forms with d. Residues, ends and D or L forms follow the SMILES beside them.

Legend:
Experiment in all cases: NCI tumour cell line growth inhibition, 48 h
[1] = tested on: CAKI-1
[2] = tested on: HCC 2998
[3] = tested on: KM12
[4] = tested on: LOX IMVI
[5] = tested on: M14
[6] = tested on: NCI-H226
[7] = tested on: NCI-H23
[8] = tested on: NCI-H522
[9] = tested on: SK-MEL-28
[10] = tested on: SK-MEL-2
[11] = tested on: SK-MEL-5
[12] = tested on: SK-OV-3
[13] = tested on: SN12C
[14] = tested on: SNB-75
[15] = tested on: DU-145
[16] = tested on: Hs-578T
[17] = tested on: MDA-MB-231
[18] = tested on: PC-3
[19] = tested on: T47D
[20] = tested on: BT-549

Structure (SMILES)	GI50 [1]	GI50 [2]	GI50 [3]	GI50 [4]	GI50 [5]	GI50 [6]	GI50 [7]	GI50 [8]	GI50 [9]	GI50 [10]	GI50 [11]	GI50 [12]	GI50 [13]	GI50 [14]	GI50 [15]	GI50 [16]	GI50 [17]	GI50 [18]	GI50 [19]	GI50 [20]
O=C1Nc2ccc(Br)cc2/C1=N/Nc1ccc([N+](=O)[O-])cc1	22.8 µM (inactive)	33.3 µM (inactive)	24.6 µM (inactive)	21 µM (inactive)	23.6 µM (inactive)	18 µM (inactive)	22 µM (inactive)	31.3 µM (inactive)	16.8 µM (inactive)	31 µM (inactive)	25 µM (inactive)	19.5 µM (inactive)	19.3 µM (inactive)	19.3 µM (inactive)						
CC(C)OCC(O)COc1ccc2ccc(=O)oc2c1 (stereo not given)	> 100 µM (inactive)	> 100 µM (inactive)	> 100 µM (inactive)	> 100 µM (inactive)	> 100 µM (inactive)		> 100 µM (inactive)	> 100 µM (inactive)	> 100 µM (inactive)		> 100 µM (inactive)	> 100 µM (inactive)	> 100 µM (inactive)	> 100 µM (inactive)	> 100 µM (inactive)	> 100 µM (inactive)	> 100 µM (inactive)	> 100 µM (inactive)	> 100 µM (inactive)	
FC1(F)[Se]C2C3CCC(C3)C2C1(F)F (stereo not given)	> 100 µM (inactive)	> 100 µM (inactive)	> 100 µM (inactive)	> 100 µM (inactive)	> 100 µM (inactive)	> 100 µM (inactive)		> 100 µM (inactive)	> 100 µM (inactive)	> 100 µM (inactive)	> 100 µM (inactive)	> 100 µM (inactive)	> 100 µM (inactive)	97.3 µM (inactive)	> 100 µM (inactive)	> 100 µM (inactive)	> 100 µM (inactive)	> 100 µM (inactive)	> 100 µM (inactive)	
CC(C)(C)/N=c1/n(C(C)(C)C)oc(=O)n1-c1ccccc1	> 50 µM (inactive)		> 50 µM (inactive)	> 50 µM (inactive)	> 50 µM (inactive)	> 50 µM (inactive)	> 50 µM (inactive)	> 50 µM (inactive)	> 50 µM (inactive)	> 50 µM (inactive)	> 50 µM (inactive)	> 50 µM (inactive)	> 50 µM (inactive)	35.6 µM (inactive)	> 50 µM (inactive)	> 50 µM (inactive)	> 50 µM (inactive)	> 50 µM (inactive)		
CCn1c2ccccc2c2ccc(C3C(C(=O)OC)=C(C)NC(C)=C3C(=O)OC)cc21	31 µM (inactive)	42.5 µM (inactive)	33.7 µM (inactive)	35.8 µM (inactive)		33 µM (inactive)	56 µM (inactive)		70.1 µM (inactive)		43.6 µM (inactive)	> 100 µM (inactive)	45.1 µM (inactive)	51.5 µM (inactive)	> 100 µM (inactive)		15.9 µM (inactive)		63.8 µM (inactive)	49.3 µM (inactive)
N=C(N)NS(=O)(=O)c1ccc(Nc2c3ccccc3nc3c(C(=O)N4CCN(CCO)CC4)cccc23)cc1	> 100 µM (inactive)	> 100 µM (inactive)	> 100 µM (inactive)	> 100 µM (inactive)	> 100 µM (inactive)	> 100 µM (inactive)	> 100 µM (inactive)	> 100 µM (inactive)	> 100 µM (inactive)	> 100 µM (inactive)	> 100 µM (inactive)	2.7 µM (inactive)	> 100 µM (inactive)	> 100 µM (inactive)						
CC1(C)CCC[C@]2(C)[C@@H]1CC[C@@]13O[C@@H]1C1=C(CO)C(=O)OC1=C[C@@H]23	18.8 µM (inactive)	18.9 µM (inactive)	11.9 µM (inactive)		15.8 µM (inactive)	15.7 µM (inactive)	17.5 µM (inactive)	10.1 µM (inactive)	16.6 µM (inactive)	22.8 µM (inactive)	15.5 µM (inactive)	20.6 µM (inactive)	12.9 µM (inactive)	30.5 µM (inactive)	18.4 µM (inactive)		31.1 µM (inactive)	14.9 µM (inactive)		22 µM (inactive)
CC(C)COP(C)(=O)C(N)(C(F)(F)F)C(F)(F)F (stereo not given)	> 100 µM (inactive)	> 100 µM (inactive)	> 100 µM (inactive)	> 100 µM (inactive)	> 100 µM (inactive)	> 100 µM (inactive)	> 100 µM (inactive)		> 100 µM (inactive)	> 100 µM (inactive)	> 100 µM (inactive)	> 100 µM (inactive)	> 100 µM (inactive)	7.78 µM (inactive)	> 100 µM (inactive)	> 100 µM (inactive)	> 100 µM (inactive)	> 100 µM (inactive)	> 100 µM (inactive)	
O=C(CSc1c2ccccc2nc2ccccc12)Nc1ccccc1-c1ccccc1NC(=O)CSc1c2ccccc2nc2ccccc12	26.6 µM (inactive)	17.4 µM (inactive)	21.5 µM (inactive)	17.2 µM (inactive)	24.4 µM (inactive)	29.2 µM (inactive)	18.9 µM (inactive)	9.42 µM (inactive)	20.8 µM (inactive)	17.6 µM (inactive)	12.8 µM (inactive)	80.4 µM (inactive)	28 µM (inactive)	42.2 µM (inactive)						
Cc1cccc(C(C)C)c1NC(=O)CC1C(=O)Nc2ccccc2S1(=O)=O (stereo not given)	6.58 µM (inactive)	22.9 µM (inactive)	19.4 µM (inactive)	22.2 µM (inactive)	15.5 µM (inactive)	18.7 µM (inactive)	9.06 µM (inactive)	7.01 µM (inactive)	17.7 µM (inactive)	> 38.3 µM (inactive)	12.3 µM (inactive)	> 100 µM (inactive)	23.2 µM (inactive)	21.5 µM (inactive)						
COc1ccccc1NC(=O)C(=O)C(c1cnc2ccc([N+](=O)[O-])cc2n1)[N+](=O)[O-] (stereo not given)	> 100 µM (inactive)	92 µM (inactive)	> 100 µM (inactive)	> 100 µM (inactive)	78.7 µM (inactive)	> 100 µM (inactive)	> 100 µM (inactive)	8.71 µM (inactive)	> 100 µM (inactive)	> 100 µM (inactive)	> 100 µM (inactive)	> 100 µM (inactive)	> 100 µM (inactive)	> 100 µM (inactive)						
O=C1NCC2(CCNCC2)N1c1ccccc1	> 100 µM (inactive)	> 100 µM (inactive)	> 100 µM (inactive)	> 100 µM (inactive)	> 100 µM (inactive)	> 100 µM (inactive)	> 100 µM (inactive)	> 100 µM (inactive)	> 100 µM (inactive)	> 100 µM (inactive)	> 100 µM (inactive)		> 100 µM (inactive)	> 100 µM (inactive)	> 100 µM (inactive)	> 100 µM (inactive)	> 100 µM (inactive)	> 100 µM (inactive)	> 100 µM (inactive)	
O=C(Cc1ccccc1)C(c1ccccc1)S(=O)(=O)c1ccccc1 (stereo not given)	> 100 µM (inactive)	> 100 µM (inactive)	> 100 µM (inactive)	> 100 µM (inactive)	> 100 µM (inactive)	> 100 µM (inactive)	77.4 µM (inactive)	88.7 µM (inactive)	> 100 µM (inactive)	> 100 µM (inactive)	> 100 µM (inactive)	> 100 µM (inactive)	> 100 µM (inactive)	23 µM (inactive)						
COC(=O)C1=C(O)C(O)=C(C(=O)OC)C1	> 100 µM (inactive)	> 100 µM (inactive)	> 100 µM (inactive)	> 100 µM (inactive)	> 100 µM (inactive)	> 100 µM (inactive)	> 100 µM (inactive)	> 100 µM (inactive)	> 100 µM (inactive)	> 100 µM (inactive)	> 100 µM (inactive)	> 100 µM (inactive)	> 100 µM (inactive)	> 100 µM (inactive)						
CCOC(=O)C1Nc2ccccc2[C@H]2OCC[C@@H]12 (stereo not given in full)	> 100 µM (inactive)	> 100 µM (inactive)	> 100 µM (inactive)	> 100 µM (inactive)	> 100 µM (inactive)	> 100 µM (inactive)	> 100 µM (inactive)	> 100 µM (inactive)	> 100 µM (inactive)	0.0596 µM (active)	> 100 µM (inactive)	> 100 µM (inactive)	> 100 µM (inactive)	> 100 µM (inactive)						
CSCC[C@H](NC(=O)[C@@H](N)CC(N)=O)C(=O)N[C@@H](Cc1c[nH]c2ccccc12)C(=O)N[C@@H](CCC(N)=O)C(=O)N[C@@H](CCC(=O)O)C(=O)N[C@H](C(=O)NCC(=O)N[C@@H](CCCCN)C(=O)N[C@H](C)C(=O)O)C(C)C (H-NMWQEVGK[dA]-OH)	> 100 µM (inactive)	> 100 µM (inactive)	> 100 µM (inactive)	> 100 µM (inactive)	> 100 µM (inactive)	> 100 µM (inactive)	> 100 µM (inactive)		> 100 µM (inactive)		> 100 µM (inactive)	> 100 µM (inactive)	> 100 µM (inactive)	> 100 µM (inactive)	> 100 µM (inactive)	> 100 µM (inactive)	> 100 µM (inactive)	> 100 µM (inactive)	> 100 µM (inactive)	
CCOC(=O)N1CCC(=C2c3ccc(Cl)cc3CCc3cccnc32)CC1 [LORATADINE]		10 µM (inactive)	10.6 µM (inactive)	10.9 µM (inactive)	12.4 µM (inactive)	14.6 µM (inactive)	15.8 µM (inactive)		5.57 µM (inactive)	11.2 µM (inactive)	2.08 µM (inactive)	15.5 µM (inactive)	10.2 µM (inactive)		11.5 µM (inactive)	26.9 µM (inactive)	20 µM (inactive)	10.4 µM (inactive)	13.3 µM (inactive)	
